Experimental data from ChEMBL document CHEMBL4118171, “Brain penetrant kinase inhibitors: Learning from kinase neuroscience discovery” (Bioorg Med Chem Lett, 2018).

What was measured:
[1] = Ratio of drug level in brain to plasma in rat; type: ADME; settings: read-out: BPR
[2] = Ratio of drug level in Sprague-Dawley rat brain to plasma at 100 mg/kg, po administered as single dose after 6 hrs by LC-MS/MS analysis; type: ADME, organism-based; settings: read-out: BPR
[3] = Ratio of AUC (0 to 3 hrs) in FVB mouse brain to plasma at 1 mg/kg, iv by LC-MS/MS analysis; type: ADME, organism-based; settings: read-out: Ratio AUC
Rattus norvegicus [4] = assay: In vivo inhibition of Plk2-mediated phosphorylation of alpha-synuclein in Sprague-Dawley rat brain assessed as reduction in pS129-alpha-synuclein levels at 200 mg/kg, po administered as single dose after 6 hrs by sandwich ELISA relative to control; type: functional
[5] = Ratio of drug level in Sprague-Dawley rat brain to plasma at 200 mg/kg, po administered as single dose after 6 hrs by LC-MS/MS analysis; type: ADME, organism-based; settings: read-out: BPR
Rattus norvegicus [6] = assay: In vivo inhibition of Plk2-mediated phosphorylation of alpha-synuclein in Sprague-Dawley rat brain assessed as reduction in pS129-alpha-synuclein levels at 100 mg/kg, po administered as single dose after 6 hrs by sandwich ELISA relative to control; type: functional
MDR1 [7] = assay: Efflux ratio of apparent permeability in MDCK2-MDR1; type: ADME, cell-based, Canis lupus familiaris; settings: dog, MDCK-MDR1
[8] = Unbound Cmax in C57BL/6J mouse brain at 10 mg/kg, sc; type: ADME, organism-based; settings: in vivo
MDR1 [9] = assay: Efflux ratio of apparent permeability in MDCK cells expressing human MDR1; type: ADME, cell-based, Canis lupus familiaris; settings: dog
Mus musculus [10] = assay: In vivo target occupancy at CK1epsilon in C57BL/6J mouse CNS at 10 mg/kg, sc; type: functional
Mus musculus [11] = assay: In vivo target occupancy at CK1delta in C57BL/6J mouse CNS at 10 mg/kg, sc; type: functional
[12] = Ratio of drug level in brain to plasma in Sprague-Dawley rat at 5 mg/kg, po after 3 hrs by LC-MS/MS analysis; type: ADME, organism-based; settings: read-out: BPR
[13] = Efflux ratio of apparent permeability in human Caco2 cells by HPLC-MS/MS analysis; type: ADME, cell-based; settings: Caco-2
[14] = Drug uptake in mouse brain at 5 mg/kg/day, po after 30 to 60 mins by LC/MS analysis; type: ADME, organism-based; settings: in vivo, read-out: Drug uptake
[15] = Ratio of drug level in plasma to CSF in Alzheimer's disease patient at 50 to 125 mg, po qd for 4 weeks measured 23 to 28 hrs post last dose by LC/MS analysis; type: ADME, organism-based; settings: human, in vivo
[16] = Drug uptake in mouse CSF up to 20 mg/kg/day, po after 30 to 60 mins by LC/MS analysis relative to brain; type: ADME, organism-based, Cerebrospinal fluid; settings: in vivo
[17] = Drug uptake in mouse brain up to 20 mg/kg/day, po after 30 to 60 mins by LC/MS analysis relative to plasma; type: ADME, organism-based
[18] = Ratio of drug level in brain to plasma in C57BL6 mouse at 30 mg/kg, po after 1 hr by LC/MS analysis; type: ADME, organism-based; settings: read-out: BPR

`CN(CCNc1ccn2ncc(-c3ccc(C(N)=O)cc3)c2n1)C(=O)OC(C)(C)C` gave a Kp [1] of 0.007.

For `CC[C@@]12COCCN1c1nc(-n3ccnc3-c3ccccc3)ncc1N(C)C2=O`, the Kp at 6 h [2] was 0.42, the Kp [3] was 0.3 and the inhibition in vivo at 200 mg/kg (Rattus norvegicus [4]) was 41.4%. The Kp at 6 h [5] was 0.46 and the inhibition in vivo at 100 mg/kg (Rattus norvegicus [6]) was 34.5%.

For `CN1C(=O)[C@@H](NC(=O)c2nnc(Cc3ccccc3)o2)COc2cccnc21`, the efflux ratio (MDR1 [7]) was < 2.

For `COc1ncccc1-c1cnn2ccc(N3CCN(C(=O)OC(C)C)CC3)nc12`, the Kp [1] was > 2.

`Nc1nccc(-c2c(-c3ccc(F)cc3)ncn2C2CCN(Cc3ccon3)CC2)n1` gave a fCmax [8] of 117 nM, an efflux ratio (MDR1 [9]) of 3.2 and an Occ (Mus musculus [10]) of 58%. The Occ (Mus musculus [11]) was 88%.

With `CN1CCN(c2cc(-c3ccncc3)c(-c3ccc4ccccc4c3)nn2)CC1` [MW-150] the Kp at 3 h [12] was > 0.9 and the efflux ratio [13] was 0.9.

In the case of `CN1CCN(CCOc2cc(OC3CCOCC3)c3c(Nc4c(Cl)ccc5c4OCO5)ncnc3c2)CC1` [SARACATINIB], the concentration [14] is reported as 50 nM, the Ratio [15] is reported as 0.4 and the Drug uptake [16] is reported as 35%. It also gave a Drug uptake [17] of 50%.

`Cc1ccc(C(=O)NNC(=O)c2c(C)cccc2Cl)cc1C#Cc1cnc2ccccc2c1` [VODOBATINIB] showed a Kp at 1 h [18] of 0.4.
